# Measurements taken from patent US20200223889A1, “Bicyclic Compounds Capable of Binding to Melanocortin 4 Receptor” (Novo Nordisk A/S, priority 2017, published 2020).
# Where two headings read alike, the source gives them in different places. Starred links: 1 amine or outer side, 2 acyl side, 3 side chain; linkers in the order of their positions; H or OH if unused. Positions of bridges follow the written chain, without caps; N, C: chain ends. Non-standard residues stand in square brackets, D forms with d. Residues, ends and D or L forms follow the SMILES beside them. 1Nal = N[C@@H](Cc1cccc2ccccc12)C(=O)O; 2Nal = N[C@@H](Cc1ccc2ccccc2c1)C(=O)O; Cit = NC(=O)NCCC[C@H](N)C(=O)O; Agp = N=C(N)NC[C@H](N)C(=O)O; Pen = CC(C)(S)[C@H](N)C(=O)O; d(hCys) = N[C@H](CCS)C(=O)O; Thz = O=C(O)[C@@H]1CSCN1; Ac4c = NC1(C(=O)O)CCC1; X1 = C(CN[*:2])CS[*:1]; Aib = CC(C)(N)C(=O)O; βAla = NCCC(=O)O
# How the values were obtained:
# human MC4R [1] = target: T1, human MC4R (Homo sapiens, UniProt P32245); test: 125NDP-α-MSH competitive binding to membranes of BHK cells expressing human MC4 receptor (filtration assay)
# T1 construct: expressed in transfected cells
# Experimental: In Vitro ^125NDP-α-MSH Binding to Recombinant BHK Cells Expressing Human MC4 Receptor (Filtration Assay)
# In order to assess the binding affinity of the selected compounds for the human MC4R competitive binding assays was performed with radiolabeled NDP-alpha MSH (^125NDP-α-MSH).
# The assay was performed in 96-well filterplates (Unifilter) using BHK cells stably expressing the human MC4 receptor.
# The BHK cell membranes were prepared from frozen or fresh cells that were homogenized in 20 mM HEPES pH 7.1, 5 mM MgCl2, 1 mg/ml bacitracin (buffer 1) and centrifuged at 15000 rpm at 4° C., 10 min in a Sorvall RC 5B plus, SS-34 rotor. The supernatant was discarded, and the pellets were re-suspended in buffer 1, homogenized and centrifuged two more times. The final pellets were re-suspended in buffer 1 and the protein concentration was measured and adjusted with buffer 1 to 5 mg/ml and the membrane preparation was kept at −80° C. until assay. The assay was run on a dilution of this cell membrane suspension without any further preparation. The suspension was diluted to give maximally 10% specific binding, i.e. to approx. 50-100 fold dilution, optimized after each membrane preparation. The assay was performed in a total volume of 200 μl: 50 μl of cell suspension, 50 μl of ^125NDP-α-MSH (apx. […] in final concentration), 50 μl of test compound and 50 μl binding buffer were mixed and incubated for 2 h at 25° C. (binding buffer: 25 mM HEPES, pH 7.0, 1 mM CaCl2), 1 mM MgSO4, 1 mM EGTA, 0.005% Tween™ 20 and 0.1% HSA or, alternatively, 0.1% ovalbumin (Sigma; catalogue No. A-5503)). Test compounds were dissolved in 100% DMSO and diluted in binding buffer in a dose range from 1 μM to 0.001 nM. Radiolabelled ligand and membranes were diluted in binding buffer. The incubation was stopped by dilution with 8×100 μl ice-cold 0.9% NaCl. The radioactivity retained on the filters was counted using a Packard Topcounter. The data were analysed by non-linear regression analysis of binding curves, using the Windows™ program GraphPad™ Prism (GraphPad Software, USA).
# human MC4R [2] = target: T1, human MC4R; test: Functional cAMP assay (CisBio HTRF) in BHK cells expressing human MC4R; format: cell-based; conditions: for MC1R/MC4R cAMP EC50 ratio: MC1R cAMP EC50 divided by MC4R cAMP EC50
# In short: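 Stably transfected BHK cells expressing human MC1R or MC4R; cAMP quantified by HTRF (cAMP-d2/cryptate) after 30 min compound stimulation at 25 °C in DMEM-based buffer with 1 mM IBMX. Compounds were prepared as 10-fold serial dilutions starting at 2 μM (working solution, 2× final). Readout after 1 h at 25 °C; non-linear regression.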
# [3] = human MC4R, BHK cell membranes, 125NDP-α-MSH radioligand, read-out: MC4R binding Ki
# [4] = BHK cells expressing human MC4R, '>' = highest dose used with no response, read-out: MC4R cAMP EC50
# T1 sequence (P32245 whole entry): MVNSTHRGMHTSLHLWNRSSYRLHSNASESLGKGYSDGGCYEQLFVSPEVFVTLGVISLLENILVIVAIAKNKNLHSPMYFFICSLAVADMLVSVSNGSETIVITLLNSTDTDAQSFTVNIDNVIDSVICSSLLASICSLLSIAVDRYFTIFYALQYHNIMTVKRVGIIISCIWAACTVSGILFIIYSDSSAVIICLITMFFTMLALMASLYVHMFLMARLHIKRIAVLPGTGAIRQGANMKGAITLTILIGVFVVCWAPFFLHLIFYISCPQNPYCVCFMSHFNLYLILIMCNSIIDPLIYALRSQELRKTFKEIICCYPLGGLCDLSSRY
Structure (SMILES),Ki (human MC4R [1]),EC50 (human MC4R [2]),MC1R/MC4R cAMP EC50 ratio (human MC4R [2]),Ki (human MC4R [1]; [3]),EC50 (human MC4R [2]; [4])
"N=C(N)NCCC[C@@H]1NC(=O)[C@@H](Cc2ccccc2)NC(=O)[C@H](Cc2c[nH]cn2)NC(=O)C2(CCC2)NC(=O)[C@@H]2CSSC[C@H](NC(=O)[C@H](Cc3c[nH]c4ccccc34)NC1=O)C(=O)NC1(CCC1)C(=O)N[C@@H](Cc1c[nH]cn1)C(=O)N[C@H](Cc1ccccc1)C(=O)N[C@@H](CCCNC(=N)N)C(=O)N[C@@H](Cc1c[nH]c3ccccc13)C(=O)N2 [Chem. 20, c[c[Cys-ACBC-His-D-Phe-Arg-Trp- Cys]-ACBC-His-D-Phe-Arg-Trp]] (cyclo([Ac4c]H[dF]RWC[Ac4c]H[dF]RWC); disulfide 6-12)",0.15 nM,0.04 nM,124,,
"CC1(C)NC(=O)[C@@H]2CSSC[C@H](NC(=O)[C@H](Cc3c[nH]c4ccccc34)NC(=O)[C@H](CNC(=N)N)NC(=O)[C@@H](Cc3ccccc3)NC(=O)[C@H](Cc3c[nH]cn3)NC1=O)C(=O)NC(C)(C)C(=O)N[C@@H](Cc1c[nH]cn1)C(=O)N[C@H](Cc1ccccc1)C(=O)N[C@@H](CNC(=N)N)C(=O)N[C@@H](Cc1c[nH]c3ccccc13)C(=O)N2 [Chem. 43, c[c[Cys-Aib-His-D-Phe-AGP-Trp- Cys]-Aib-His-D-Phe-AGP-Trp]] (cyclo([Agp]WC[Aib]H[dF][Agp]WC[Aib]H[dF]); disulfide 3-9)",,,107,2.61 nM,0.44 nM
"C[C@@H]1NC(=O)[C@@H]2CSSC[C@H](NC(=O)[C@H](Cc3cccc4ccccc34)NC(=O)[C@H](CCCNC(=N)N)NC(=O)[C@@H](Cc3ccccc3)NC(=O)[C@H](Cc3c[nH]cn3)NC1=O)C(=O)N[C@@H](C)C(=O)N[C@@H](CCCCN)C(=O)N[C@@H](CCCCN)C(=O)N[C@@H](CCCCN)C(=O)N[C@@H](Cc1c[nH]c3ccccc13)C(=O)N2 [Chem. 64, c[c[Cys-Ala-His-D-Phe-Arg-1-Nal- Cys]-Ala-Lys-Lys-Lys-Trp]] (cyclo([1Nal]CAKKKWCAH[dF]R); disulfide 2-8)",,,141,0.09 nM,0.03 nM
"C[C@@H]1NC(=O)[C@@H]2CSSC[C@H](NC(=O)[C@H](CCCNC(=N)N)NC(=O)[C@H](CCCCN)NC(=O)[C@H](CCCCN)NC(=O)[C@H](CCCCN)NC1=O)C(=O)N1CSC[C@H]1C(=O)N[C@@H](Cc1c[nH]cn1)C(=O)N[C@H](Cc1ccccc1)C(=O)N[C@@H](Cc1c[nH]cn1)C(=O)N[C@@H](Cc1c[nH]c3ccccc13)C(=O)N2 [Chem. 100, c[c[Cys-THAZ-His-D-Phe-His-Trp- Cys]-Ala-Lys-Lys-Lys-Arg]] (cyclo(AKKKRC[Thz]H[dF]HWC); disulfide 6-12)",0.04 nM,0.02 nM,925,,
"NCCCC[C@H]1NC(=O)[C@@H]2CSSC[C@H](NC(=O)[C@H](Cc3c[nH]c4ccccc34)NC(=O)[C@H](Cc3c[nH]cn3)NC(=O)[C@@H](Cc3ccccc3)NC(=O)[C@H](Cc3c[nH]cn3)NC1=O)C(=O)N[C@H](CCCCN)C(=O)N[C@@H](Cc1c[nH]cn1)C(=O)N[C@H](Cc1ccccc1)C(=O)N[C@@H](Cc1c[nH]cn1)C(=O)N[C@@H](Cc1c[nH]c3ccccc13)C(=O)N2 [Chem. 86, c[c[Cys-D-Lys-His-D-Phe-His-Trp- Cys]-D-Lys-His-D-Phe-His-Trp]] (cyclo(C[dK]H[dF]HWC[dK]H[dF]HW); disulfide 1-7)",,,10,9.6 nM,14.5 nM
"C[C@@H]1NC(=O)[C@@H]2CSSC[C@H](NC(=O)[C@H](Cc3ccc4ccccc4c3)NC(=O)[C@H](CCCNC(=N)N)NC(=O)[C@@H](Cc3ccccc3)NC(=O)[C@H](Cc3c[nH]cn3)NC1=O)C(=O)N[C@@H](C)C(=O)N[C@@H](CCCCN)C(=O)N[C@@H](CCCCN)C(=O)N[C@@H](CCCCN)C(=O)N[C@@H](Cc1c[nH]c3ccccc13)C(=O)N2 [Chem. 79, c[c[Cys-Ala-His-D-Phe-Arg-2-Nal- Cys]-Ala-Lys-Lys-Lys-Trp]] (cyclo([2Nal]CAKKKWCAH[dF]R); disulfide 2-8)",,,58,0.03 nM,0.02 nM
"C[C@@H]1NC(=O)[C@@H]2CSSC[C@H](NC(=O)[C@H](Cc3c[nH]c4ccccc34)NC(=O)[C@H](CCCNC(N)=O)NC(=O)[C@@H](Cc3ccccc3)NC(=O)[C@H](Cc3c[nH]cn3)NC1=O)C(=O)N[C@@H](C)C(=O)N[C@@H](CCCCN)C(=O)N[C@@H](CCCCN)C(=O)N[C@@H](CCCCN)C(=O)N[C@@H](Cc1c[nH]c3ccccc13)C(=O)N2 [Chem. 48, c[c[Cys-Ala-His-D-Phe-Cit-Trp-Cys]- Ala-Lys-Lys-Lys-Trp]] (cyclo(AH[dF][Cit]WCAKKKWC); disulfide 6-12)",,,152,0.15 nM,0.06 nM
"N=C(N)NCCC[C@@H]1NC(=O)[C@@H](Cc2ccccc2)NC(=O)[C@H](Cc2c[nH]cn2)NC(=O)CCNC(=O)[C@@H]2CSSC[C@H](NC(=O)[C@H](Cc3c[nH]c4ccccc34)NC1=O)C(=O)NCCC(=O)N[C@@H](Cc1c[nH]cn1)C(=O)N[C@H](Cc1ccccc1)C(=O)N[C@@H](CCCNC(=N)N)C(=O)N[C@@H](Cc1c[nH]c3ccccc13)C(=O)N2 [Chem. 25, c[c[Cys-βAla-His-D-Phe-Arg-Trp- Cys]-βAla-His-D-Phe-Arg-Trp]] (cyclo(C[βAla]H[dF]RWC[βAla]H[dF]RW); disulfide 1-7)",,,17,0.04 nM,0.02 nM
"CC(=O)N[C@@H](Cc1c[nH]cn1)C(=O)N[C@H](Cc1ccccc1)C(=O)N[C@@H](CCCNC(=N)N)C(=O)N[C@@H](Cc1c[nH]c2ccccc12)C(=O)N[C@H](C)C(=O)N[C@@H]1CCSSCCCNC(=O)[C@@H](C)NC(=O)[C@H](Cc2c[nH]c3ccccc23)NC(=O)[C@H](CCCNC(=N)N)NC(=O)[C@@H](Cc2ccccc2)NC(=O)[C@H](Cc2c[nH]cn2)NC1=O [Chem. 6, c[c[Cys-His-D-Phe-Arg-Trp-D-Ala- Cys]-His-D-Phe-Arg-Trp-D-Ala]] (Ac-H[dF]RW[dA][d(hCys)]H[dF]RW[dA]; linker 6-C via X1)",,,39,0.19 nM,0.06 nM
"CC(C)[C@H]1NC(=O)[C@@H]2CSSC[C@H](NC(=O)[C@H](Cc3c[nH]c4ccccc34)NC(=O)[C@H](CCCNC(=N)N)NC(=O)[C@@H](Cc3ccccc3)NC(=O)[C@H](Cc3c[nH]cn3)NC1=O)C(=O)N[C@H](C(C)C)C(=O)N[C@@H](Cc1c[nH]cn1)C(=O)N[C@H](Cc1ccccc1)C(=O)N[C@@H](CCCNC(=N)N)C(=O)N[C@@H](Cc1c[nH]c3ccccc13)C(=O)N2 [Chem. 34, c[c[Cys-D-Val-His-D-Phe-Arg-Trp- Cys]-D-Val-His-D-Phe-Arg-Trp]] (cyclo(C[dV]H[dF]RWC[dV]H[dF]RW); disulfide 1-7)",,,22,0.88 nM,0.12 nM
"C[C@@H]1NC(=O)[C@@H]2CSSC[C@H](NC(=O)[C@H](CCCNC(=N)N)NC(=O)[C@H](CCCCN)NC(=O)[C@H](CCCCN)NC(=O)[C@H](CCCCN)NC1=O)C(=O)N1CCC[C@H]1C(=O)N[C@@H](Cc1c[nH]cn1)C(=O)N[C@H](Cc1ccccc1)C(=O)N[C@@H](Cc1c[nH]cn1)C(=O)N[C@@H](Cc1c[nH]c3ccccc13)C(=O)N2 [Chem. 71, c[c[Cys-Pro-His-D-Phe-His-Trp-Cys]- Ala-Lys-Lys-Lys-Arg]] (cyclo(AKKKRCPH[dF]HWC); disulfide 6-12)",,,415,0.05 nM,0.08 nM
"C[C@@H]1NC(=O)[C@H]2NC(=O)[C@H](Cc3c[nH]c4ccccc34)NC(=O)[C@H](Cc3c[nH]cn3)NC(=O)[C@@H](Cc3ccccc3)NC(=O)[C@H](Cc3c[nH]cn3)NC(=O)[C@@H]3CCCN3C(=O)[C@H](CSSC2(C)C)NC(=O)[C@H](CCCNC(=N)N)NC(=O)[C@H](CCCCN)NC(=O)[C@H](CCCCN)NC(=O)[C@H](CCCCN)NC1=O [Chem. 93, c[c[Cys-Pro-His-D-Phe-His-Trp-Pen]- Ala-Lys-Lys-Lys-Arg]] (cyclo(AKKKRCPH[dF]HW[Pen]); disulfide 6-12)",,,456,0.03 nM,0.04 nM
